Legend:
[1] = system: TAZ protein; assay: Imaging analysis of nuclear translocation in SKOV3 cells; format: cell-based, human; conditions: 10 μM, 4 hr, ratio of fluorescence intensity nucleus/cytoplasm, no addition 6.98
Method: Compounds k-1:B-1, k-1:H-1, and k-1:J-1 were evaluated for nuclear translocation of YAP protein and TAZ protein. For the nuclear translocation, imaging analysis was performed using the human ovarian cancer cell line SKOV3 (manufactured by DS Pharma Biomedical Co., Ltd) and OperettaCLS (manufactured by PerkinElmer) described below. The compounds were added such that the final concentration of the test concentration of k-1:B-1, k-1:H-1, and k-1:J-1 was 10 μM.
Human ovarian cancer cell line SKOV3 cultured according to the protocol recommended by DS Pharma Biomedical Co., Ltd. was seeded on a 96-well plate (manufactured by PerkinElmer, CellCarrier-Ultra) at 15,000 cells/90 μL/well on the cycloolefin bottom surface, and cultured in a CO2 incubator (37° C., 5% CO2) for 1 day. After culturing, 10 μL of k-1:B-1, k-1:H-1, and k-1:J-1 solutions having a concentration of 100 μM and dissolved in DMSO was added. The cells were further cultured in a CO2 incubator at 37° C. for 4 hr. The medium was exchanged with 4% para-formaldehyde, and the cells were fixed by allowing to stand at room temperature for 10 min. The fixed cells were subjected to immunostaining with AlexaFluor® 647-labeled YAP antibody (manufactured by Cell Signaling Technology), anti-mouse TAZ (D-8) antibody (manufactured by SantaCruz), AlexaFluor® 555-labeled anti-mouse IgG antibody (manufactured by Thermo Fisher Scientific), according to the recommended protocol produced by Cell Signaling Technology, and the cell nucleus was further stained with 10 μg/mL Hoechst33342 solution.
Nine fields of view were imaged per well using a 20× objective lens of Operatta CLS. The cell nucleus region and the cytoplasm region were identified from the obtained fluorescence images by using the analysis software Harmony (manufactured by PerkinElmer), and AlexaFluor® 647 fluorescence intensity per unit area and the AlexaFluor® 555 fluorescence intensity per unit area in each region were extracted. The nuclear translocation was evaluated by calculating the ratio of the fluorescence intensity of the cell nucleus region to the fluorescence intensity of the cytoplasmic region from the extracted values. The value becomes greater than 1 as the YAP protein and TAZ protein transfer into the cell nucleus, and less than 1 when localized in the cytoplasm.
The specific compound used in the present invention was evaluated for the nuclear translocation of YAP protein and TAZ protein. For the nuclear translocation, imaging analysis was performed using the human ovarian cancer cell line SKOV3 (DS Pharma Biomedical Co., Ltd) and OperettaCLS (PerkinElmer) described below. The specific compound was added such that the final concentration of the test concentration of the compound used in the present invention was 10 μM.
Human ovarian cancer cell line SKOV3 cultured according to the protocol recommended by DS Pharma Biomedical Co., Ltd. was seeded on a 96-well plate (PerkinElmer, CellCarrier-Ultra) at 15,000 cells/90 μL/well on the cycloolefin bottom surface, and cultured in a CO2 incubator (37° C., 5% CO2) for 1 day. After culturing, a solution of the specific compound used in the present invention dissolved in DMSO was added. The cells were further cultured in a CO2 incubator at 37° C. for 4 hr, the medium was exchanged with 4% para-formaldehyde, and the cells were fixed by allowing to stand at room temperature for 10 min. The fixed cells were subjected to immunostaining with AlexaFluor® 647-labeled YAP antibody (Cell Signaling Technology), anti-mouse TAZ (D-8) antibody (SantaCruz), AlexaFluor® 555-labeled anti-mouse IgG antibody (Thermo Fisher Scientific), according to the recommended protocol produced by Cell Signaling Technology, and the cell nucleus was further stained with 10 μg/mL Hoechst33342 solution.
Nine fields of view were imaged per well using a 20× objective lens of Operatta CLS. […]

[2] = system: YAP (phospho-S127 and total); assay: YAP phosphorylation inhibitory action in SKOV3 cells (HTRF, YAP-total kit / YAP phospho-S127 kit); format: cell-based, human; conditions: 10 μM, 1 hr, Non-treatment as 100%
Method: Human ovarian cancer cell line SKOV3 (manufactured by DS Pharma Biomedical Co., Ltd) was precultured (single layer culture) in a 15% FBS-containing McCoy's 5a medium (manufactured by Sigma Ltd. Aldrich). The above-mentioned cells in the logarithmic growth phase were washed with PBS, a 0.25% (w/v) trypsin-1 mmol/L ethylenediaminetetraacetic acid (EDTA) solution (manufactured by Fujifilm Wako Pure Chemical Corporation) was added, and adherent cells were detached by incubating at 37° C. for 3 min. The above-mentioned medium was added and the mixture was centrifuged and resuspended in the same medium.
According to the method of patent document (WO 2014/017513), a composition of 10% FBS-containing DMEM medium (Phenol-red free, manufactured by FUJIFILM Wako Pure Chemical Corporation) containing 0.015% (w/v) deacylated gellan gum (KELCOGEL CG-LA, manufactured by SANSHO Co., Ltd.) was prepared using FCeM-series Preparation Kit (manufactured by FUJIFILM Wako Pure Chemical Corporation). Then, various cells prepared above were suspended in the above-mentioned medium composition (3D conditions) added with deacylated gellan gum or a medium without the addition (2D conditions), and seeded on a 50 μL/well (manufactured by Corning Incorporated, 96 well flat bottom plate, #3585, 2D conditions) or 25 μL/well (manufactured by Corning Incorporated, 96 well low adhesion flat bottom plate, #3474) at 100000 cells/well. The plate was allowed to stand at 37° C. in a 5% CO2 incubator, and the compound of the present invention diluted with the medium at 2 or 6 times the final concentration, DMSO, or the medium alone was added to the plate 3 hr after the seeding at 50 μL/well (2D conditions) or 5 μL/well (3D conditions) to make the final concentration of each compound 10 μM. After culture at 37° C. in a 5% CO2 incubator for 1 hr, the supernatant was aspirated, supplemented Lysis buffer (1-fold concentration, manufactured by Cisbio, YAP-total kit or YAP phospho-S127 kit) (50 μL) was added under 2D conditions, and supplemented Lysys buffer (4-fold concentration) (10 μL) was added to the culture supernatant under 3D conditions, and the mixture was stirred by a plate shaker for 30 min. Thereafter, the plate was centrifuged, 16 μL of the supernatant was transferred to a 384-well white plate (Corning, #4512), and each antibody solution (pYAP d2 antibody or Total-YAP d2 antibody, and pYAP Cryptate antibody or Total-YAP Cryptate antibody) included in the kit was added at 4 μL/well in total, and the mixture was allowed to stand at room temperature overnight. As a blank control, pYAP Cryptate antibody or Total-YAP Cryptate antibody alone was added to cells free of stimulation with compound and the mixture was treated in the same manner (Non-treatment). The next day, the wavelengths at 665 nm and 615 nm were measured in the HTRF mode of EnVision (manufactured by PerkinElmer).
The obtained signal was calculated as follows. Ratio=signal (665 nm)/signal (615 nm)×10000, ΔR=Signal(Ratio)−Background fluorescence, and the relative value with respect to ΔR of the compound non-addition group (Non-treatment) as 100% was calculated, and the phosphorylated YAP amount or total YAP amount by each compound was evaluated.

## CC/C(=N\NC(=O)NCc1cccc(O)c1)c1ccc(O)c(C)c1O [k-1:J-1]
[1]
  TAZ nuclear translocation rate: 9.14
[2]; 2D condition
  phosphorylated YAP (%): 13%
  total YAP (%): 86%
[2]; 3D condition
  phosphorylated YAP (%): 30%
  total YAP (%): 109%

## CCC(=NNC(=O)CNc1ccccc1)c1ccc(O)c(C)c1O [k-1:H-1]
[1]
  TAZ nuclear translocation rate: 8.84
[2]; 2D condition
  phosphorylated YAP (%): 38%
  total YAP (%): 94%
[2]; 3D condition
  phosphorylated YAP (%): 80%
  total YAP (%): 107%

## CC/C(=N\NC(=O)C(C)Nc1ccccc1)c1ccc(O)c(C)c1O (stereo not drawn) [k-1:B-1]
[1]
  TAZ nuclear translocation rate: 7.93
[2]; 2D condition
  phosphorylated YAP (%): 14%
  total YAP (%): 89%
[2]; 3D condition
  phosphorylated YAP (%): 31%
  total YAP (%): 99%
